Where “and” joins values, the source holds several entries; their conditions need not be identical. Identical values can stand only once.
How the values were obtained:
Type in all cases: functional, Homo sapiens
Design in all cases: dose or concentration left out as unconfirmed
Colon cancer organoid [1] = assay: Image-based profiling of donated chemical probes and chemogenomic kinase set in O09 CRC organoid. Image analysis is performed on the sum area metric, and the data were normalized to the DMSO control. After imaging the organoid viability is measured using the OneGloEX Luciferase Assay System. The normalized viability data and sum area are reported.
Colon cancer organoid [2] = assay: Image-based profiling of donated chemical probes and chemogenomic kinase set in O06 CRC organoid. Image analysis is performed on the sum area metric, and the data were normalized to the DMSO control. After imaging the organoid viability is measured using the OneGloEX Luciferase Assay System. The normalized viability data and sum area are reported.
Colon cancer organoid [3] = assay: Image-based profiling of donated chemical probes and chemogenomic kinase set in O21 CRC organoid. Image analysis is performed on the sum area metric, and the data were normalized to the DMSO control. After imaging the organoid viability is measured using the OneGloEX Luciferase Assay System. The normalized viability data and sum area are reported.

Compound	Cell Viability (Colon cancer organoid [1]; Replication number 1)	Cell Viability (Colon cancer organoid [1]; Replication number 2)	Cell Viability (Colon cancer organoid [2]; Replication number 1)	Cell Viability (Colon cancer organoid [2]; Replication number 2)	Cell Viability (Colon cancer organoid [3]; Replication number 1)	Cell Viability (Colon cancer organoid [3]; Replication number 2)
CC(C)N(CCCNC(=O)Nc1ccc(C(C)(C)C)cc1)C[C@H]1O[C@@H](n2cc(Br)c3c(N)ncnc32)[C@H](O)[C@@H]1O	88.0955% and 91.1128%	116.782% and 110.611%	99.7362% and 93.745%	121.159% and 96.0701%	110.58% and 96.4076%	91.3203% and 86.9928%
CC[C@H](CO)Nc1nc(NCc2ccccc2)c2ncn(C(C)C)c2n1 [SELICICLIB]	133.303% and 96.4937%	129.12% and 84.4947%	146.934% and 137.321%	92.4206% and 95.8355%	79.2225% and 95.8885%	112.922% and 92.6952%
COc1cc2c(cc1-c1c(C)noc1C)ncc1[nH]c(=O)n([C@H](C)c3ccccn3)c12	51.0073% and 39.6445%	53.9016% and 48.1786%	37.8038% and 58.2282%	43.3272% and 66.9145%	88.6726% and 67.015%	110.558% and 99.8807%
O=C(Nc1cccnn1)N1CCC(=Cc2cccc(Oc3ccc(C(F)(F)F)cn3)c2)CC1	126.629% and 132.36%	65.2365% and 71.2669%	84.0807% and 127.869%	104.052% and 107.077%	101.123% and 116.429%	106.817% and 109.694%
CN1CCN(c2ccnc(NCCc3ccccc3)n2)CC1 [TP-040n]	119.963% and 93.2958%	137.241% and 93.2958%	105.696% and 108.533%	89.6424% and 87.2137%	124.161% and 101.443%	125.774% and 83.8743%
CCn1c(-c2nc3cc(C(=O)N4CCCC(N)C4)ccc3n2C)cc2ccccc21.Cl (centres undefined)	117.35% and 104.328%	180.446% and 129.427%	210.545% and 138.685%	140.649% and 97.743%	104.488% and 105.813%	105.345% and 85.3819%
CC(C)(C)c1cc(NC(=O)Nc2ccc(-c3cn4c(n3)sc3cc(OCCN5CCOCC5)ccc34)cc2)no1 [QUIZARTINIB]	85.316% and 55.6023%	92.2589% and 77.476%	39.693% and 48.7411%	34.5672% and 63.5476%	67.5016% and 73.0314%	71.418% and 77.7258%
Cn1cc(CCn2cnc(-c3cnn(C)c3)c2-c2ccc(C#N)cc2)cn1	104.672% and 93.4312%	96.0156% and 86.9496%	175.784% and 127.57%	222.733% and 136.219%	99.776% and 95.2319%	89.4066% and 104.177%
CCC(=O)N1CCN(c2ccc(-n3c(=O)ccc4cnc5ccc(-c6cnc7ccccc7c6)cc5c43)cc2C(F)(F)F)CC1 [TORIN1]	18.1039% and 19.199%	16.4682% and 14.0105%	3.399% and 11.5065%		35.688% and 65.784%	42.752% and 81.756%
CCCCN(CCCC)C(=O)CN1C[C@@H](c2cc(OC)c3c(c2)OCO3)[C@H](C(=O)O)[C@H]1CC(C)(C)CCC [A-545]	137.08% and 104.407%	151.031% and 114.494%	97.8309% and 86.6511%	75.1695% and 72.7273%	100.23% and 87.9043%	101.691% and 84.1837%

From ChEMBL document CHEMBL5724558, “Image-based profiling of drug vulnerabilities in CRC organoids” (2024)
